Laboratory results reported in patent US20250215042A1, “MANNOSE-TARGETED COMPOSITIONS” (GENEVANT SCIENCES GMBH, priority 2022, published 2025).

How the values were obtained:
[1] = system: human CD14+ monocyte derived M1 macrophages; experiment: Binding of biotin-mannose/AF488-streptavidin complex to M1 macrophages (flow cytometry); format: cell-based; details: for binding to M1 macrophages, tetra-, hexa- and octa-valent compared: FIG. 3; for mannose ligand conjugated fluorescence (ligand binding): M1 macrophages, complex at 0.5, 0.1 and 0.02 μM, 4° C., 1.5 hours
[2] = system: human CD14+ monocyte derived M2 macrophages; experiment: Binding of biotin-mannose/AF488-streptavidin complex to M2 macrophages (flow cytometry); format: cell-based; details: FIG. 2; for mannose ligand conjugated fluorescence (ligand binding): M2 macrophages, complex at 0.5, 0.1 and 0.02 μM, 4° C., 1.5 hours
M1 macrophages = experiment: D-mannose competition with Cy3-tetra-mannose-siCD45 uptake in M1 macrophages; format: cell-based, human; details: competitor 139 mM, 5 minutes before conjugate 5 μg/mL, 1 hour; FIG. 5
Experimental: OptiMEM containing D-mannose or D-galactose was added onto testing cells to reach the final concentration of 139 mM and incubated at 37° C. for 5 minutes. […] The cells were then washed with PBS 3 times and fixed with 4% PFA for 10 minutes at room temperature. The chambers were removed from the slides and the cells were mounted with one drop of mounting media containing DAPI staining for the nuclei. The slides were covered, sealed and analyzed under fluorescent microscope.

O=C(CC[C@H](NC(=O)CC[C@H](NC(=O)CCCC[C@@H]1SC[C@@H]2NC(=O)N[C@@H]21)C(=O)N[C@@H](CCC(=O)NCC(=O)Nc1cc(C(=O)NCCOCCOCCO[C@H]2O[C@H](CO)[C@@H](O)[C@H](O)[C@@H]2O)cc(C(=O)NCCOCCOCCO[C@H]2O[C@H](CO)[C@@H](O)[C@H](O)[C@@H]2O)c1)C(=O)NCC(=O)Nc1cc(C(=O)NCCOCCOCCO[C@H]2O[C@H](CO)[C@@H](O)[C@H](O)[C@@H]2O)cc(C(=O)NCCOCCOCCO[C@H]2O[C@H](CO)[C@@H](O)[C@H](O)[C@@H]2O)c1)C(=O)NCC(=O)Nc1cc(C(=O)NCCOCCOCCO[C@H]2O[C@H](CO)[C@@H](O)[C@H](O)[C@@H]2O)cc(C(=O)NCCOCCOCCO[C@H]2O[C@H](CO)[C@@H](O)[C@H](O)[C@@H]2O)c1)NCC(=O)Nc1cc(C(=O)NCCOCCOCCO[C@H]2O[C@H](CO)[C@@H](O)[C@H](O)[C@@H]2O)cc(C(=O)NCCOCCOCCO[C@H]2O[C@H](CO)[C@@H](O)[C@H](O)[C@@H]2O)c1 [Compound 38]
binding to M1 macrophages, tetra-, hexa- and octa-valent compared [1]: did not show additional benefit

O=C(CCC(CCC(=O)NCC(=O)Nc1cc(C(=O)NCCOCCOCCO[C@H]2O[C@H](CO)[C@@H](O)[C@H](O)[C@@H]2O)cc(C(=O)NCCOCCOCCO[C@H]2O[C@H](CO)[C@@H](O)[C@H](O)[C@@H]2O)c1)(CCC(=O)NCC(=O)Nc1cc(C(=O)NCCOCCOCCO[C@H]2O[C@H](CO)[C@@H](O)[C@H](O)[C@@H]2O)cc(C(=O)NCCOCCOCCO[C@H]2O[C@H](CO)[C@@H](O)[C@H](O)[C@@H]2O)c1)NC(=O)CCCC[C@H]1SC[C@@H]2NC(=O)N[C@@H]21)NCC(=O)Nc1cc(C(=O)NCCOCCOCCO[C@H]2O[C@H](CO)[C@@H](O)[C@H](O)[C@@H]2O)cc(C(=O)NCCOCCOCCO[C@H]2O[C@H](CO)[C@@H](O)[C@H](O)[C@@H]2O)c1 [Compound 37]
binding to M1 macrophages, tetra-, hexa- and octa-valent compared ([1]; listed as Hexavalent mannose ligand): further increased binding
binding to M1 macrophages, tetra-, hexa- and octa-valent compared ([1]; listed as hexavalent mannose): highest binding affinity to M1 macrophages

O=C(CC[C@H](NC(=O)CCCC[C@H]1SC[C@H]2NC(=O)N[C@H]21)C(=O)NCC(=O)Nc1cc(C(=O)NCCOCCOCCO[C@H]2O[C@H](CO)[C@@H](O)[C@H](O)[C@@H]2O)cc(C(=O)NCCOCCOCCO[C@H]2O[C@H](CO)[C@@H](O)[C@H](O)[C@@H]2O)c1)NCC(=O)Nc1cc(C(=O)NCCOCCOCCO[C@H]2O[C@H](CO)[C@@H](O)[C@H](O)[C@@H]2O)cc(C(=O)NCCOCCOCCO[C@H]2O[C@H](CO)[C@@H](O)[C@H](O)[C@@H]2O)c1 [Compound 36]
binding affinity ranked by valency (mono-, di-, tetra-valent) ([1]; M1 cells, FIG. 2): highest binding affinity
mannose ligand conjugated fluorescence (ligand binding) ([1]; FIG. 2): Dose dependent increase
binding affinity ranked by valency (mono-, di-, tetra-valent) ([2]; M2 cells): highest binding affinity
mannose ligand conjugated fluorescence (ligand binding) [2]: Dose dependent increase

O=C(CCCC[C@@H]1SC[C@@H]2NC(=O)N[C@@H]21)NCC(=O)Nc1cc(C(=O)NCCOCCOCCO[C@H]2O[C@H](CO)[C@@H](O)[C@H](O)[C@@H]2O)cc(C(=O)NCCOCCOCCO[C@H]2O[C@H](CO)[C@@H](O)[C@H](O)[C@@H]2O)c1 [Compound 35]
mannose ligand conjugated fluorescence (ligand binding) ([1]; FIG. 2): Dose dependent increase
mannose ligand conjugated fluorescence (ligand binding) [2]: Dose dependent increase

O=C[C@@H](O)[C@@H](O)[C@H](O)[C@H](O)CO [D-mannose]
competitive inhibition of uptake of Cy3-tetra-mannose-siCD45 (M1 macrophages): substantially inhibited the uptake

O=C(CCCC[C@@H]1SC[C@@H]2NC(=O)N[C@@H]21)NCCCCCCOC1O[C@H](CO)[C@@H](O)[C@H](O)[C@@H]1O (stereo partly shown) [Compound 39]
mannose ligand conjugated fluorescence (ligand binding) ([1]; FIG. 2): Dose dependent increase
mannose ligand conjugated fluorescence (ligand binding) [2]: Dose dependent increase

O=C[C@H](O)[C@@H](O)[C@@H](O)[C@H](O)CO [D-Galactose]
competitive inhibition of uptake of Cy3-tetra-mannose-siCD45 (M1 macrophages): no competitive binding effect
